According to the NIST ThermoML archive (doi:10.1021/je100832h):

Tests used:
[1] = xn = mol fraction of the nth substance listed; settings: 101.32 kPa, Liquid, Vibrating tube method
[2] = excess molar enthalpy (molar enthalpy of mixing); xn = mol fraction of the nth substance listed; settings: 101 kPa, Liquid, Calvet calorimetry

CCCCCCCCCC [decane] + CCOC(C)=O
Settings | excess molar enthalpy [kcal/mol] | mass density [kg/m3]
[1], 291.15 K, x2 = 0 | – | 731.22
[1], 291.15 K, x2 = 0.0174 | – | 732.37
[1], 291.15 K, x2 = 0.0789 | – | 736.87
[1], 291.15 K, x2 = 0.1457 | – | 742.14
[1], 291.15 K, x2 = 0.2494 | – | 751.47
[1], 291.15 K, x2 = 0.3508 | – | 762.27
[1], 291.15 K, x2 = 0.4382 | – | 773.02
[1], 291.15 K, x2 = 0.5149 | – | 783.83
[1], 291.15 K, x2 = 0.5781 | – | 793.79
[1], 291.15 K, x2 = 0.6446 | – | 805.51
[1], 291.15 K, x2 = 0.7051 | – | 817.52
[1], 291.15 K, x2 = 0.7648 | – | 830.7
[1], 291.15 K, x2 = 0.8069 | – | 841.06
[1], 291.15 K, x2 = 0.8553 | – | 854.05
[1], 291.15 K, x2 = 0.8914 | – | 864.68
[1], 291.15 K, x2 = 0.9318 | – | 877.69
[1], 291.15 K, x2 = 0.9794 | – | 894.7
[1], 298.15 K, x2 = 0 | – | 726.2
[1], 298.15 K, x2 = 0.0319 | – | 728.3
[1], 298.15 K, x2 = 0.1165 | – | 734.6
[1], 298.15 K, x2 = 0.2048 | – | 741.9
[1], 298.15 K, x2 = 0.2835 | – | 749.3
[1], 298.15 K, x2 = 0.3475 | – | 756.1
[1], 298.15 K, x2 = 0.4252 | – | 765.35
[1], 298.15 K, x2 = 0.4873 | – | 773.59
[1], 298.15 K, x2 = 0.5417 | – | 781.58
[1], 298.15 K, x2 = 0.6031 | – | 791.53
[1], 298.15 K, x2 = 0.6469 | – | 799.34
[1], 298.15 K, x2 = 0.6957 | – | 808.8
[1], 298.15 K, x2 = 0.7407 | – | 818.3
[1], 298.15 K, x2 = 0.78 | – | 827.2
[1], 298.15 K, x2 = 0.8179 | – | 836.5
[1], 298.15 K, x2 = 0.8516 | – | 845.4
[1], 298.15 K, x2 = 0.8865 | – | 855.4
[1], 298.15 K, x2 = 0.9207 | – | 866.1
[1], 298.15 K, x2 = 0.9604 | – | 879.5
[1], 318.15 K, x2 = 0 | – | 710.9
[1], 318.15 K, x2 = 0.0117 | – | 711.52
[1], 318.15 K, x2 = 0.0758 | – | 715.68
[1], 318.15 K, x2 = 0.1539 | – | 721.34
[1], 318.15 K, x2 = 0.2456 | – | 728.94
[1], 318.15 K, x2 = 0.2848 | – | 732.56
[1], 318.15 K, x2 = 0.3468 | – | 738.71
[1], 318.15 K, x2 = 0.3714 | – | 741.31
[1], 318.15 K, x2 = 0.4391 | – | 749.04
[1], 318.15 K, x2 = 0.516 | – | 758.96
[1], 318.15 K, x2 = 0.5314 | – | 761.13
[1], 318.15 K, x2 = 0.5878 | – | 769.54
[1], 318.15 K, x2 = 0.6448 | – | 778.92
[1], 318.15 K, x2 = 0.694 | – | 787.77
[1], 318.15 K, x2 = 0.7127 | – | 791.38
[1], 318.15 K, x2 = 0.7829 | – | 806.2
[1], 318.15 K, x2 = 0.8204 | – | 815
[1], 318.15 K, x2 = 0.8538 | – | 823.5
[1], 318.15 K, x2 = 0.8886 | – | 833
[1], 318.15 K, x2 = 0.9198 | – | 842.3
[1], 318.15 K, x2 = 0.9553 | – | 853.8
[1], 328.15 K, x2 = 0 | – | 703.34
[1], 328.15 K, x2 = 0.0347 | – | 705.37
[1], 328.15 K, x2 = 0.1351 | – | 711.99
[1], 328.15 K, x2 = 0.234 | – | 719.58
[1], 328.15 K, x2 = 0.3322 | – | 728.47
[1], 328.15 K, x2 = 0.4166 | – | 737.37
[1], 328.15 K, x2 = 0.4853 | – | 745.64
[1], 328.15 K, x2 = 0.5551 | – | 755.09
[1], 328.15 K, x2 = 0.6186 | – | 764.72
[1], 328.15 K, x2 = 0.6774 | – | 774.65
[1], 328.15 K, x2 = 0.7271 | – | 783.92
[1], 328.15 K, x2 = 0.7735 | – | 793.4
[1], 328.15 K, x2 = 0.8619 | – | 814.12
[1], 328.15 K, x2 = 0.9041 | – | 825.66
[1], 328.15 K, x2 = 0.9511 | – | 840.13
[2], 291.15 K, x2 = 0.0986 | 0.146 | –
[2], 291.15 K, x2 = 0.1909 | 0.246 | –
[2], 291.15 K, x2 = 0.2646 | 0.318 | –
[2], 291.15 K, x2 = 0.3377 | 0.372 | –
[2], 291.15 K, x2 = 0.4032 | 0.404 | –
[2], 291.15 K, x2 = 0.4608 | 0.422 | –
[2], 291.15 K, x2 = 0.5067 | 0.429 | –
[2], 291.15 K, x2 = 0.5523 | 0.433 | –
[2], 291.15 K, x2 = 0.5924 | 0.428 | –
[2], 291.15 K, x2 = 0.6147 | 0.421 | –
[2], 291.15 K, x2 = 0.6541 | 0.409 | –
[2], 291.15 K, x2 = 0.7009 | 0.389 | –
[2], 291.15 K, x2 = 0.7512 | 0.357 | –
[2], 291.15 K, x2 = 0.7956 | 0.317 | –
[2], 291.15 K, x2 = 0.8448 | 0.268 | –
[2], 291.15 K, x2 = 0.8927 | 0.208 | –
[2], 291.15 K, x2 = 0.9375 | 0.14 | –
[2], 291.15 K, x2 = 0.9684 | 0.0715 | –
[2], 298.15 K, x2 = 0.0884 | 0.119 | –
[2], 298.15 K, x2 = 0.177 | 0.216 | –
[2], 298.15 K, x2 = 0.2587 | 0.289 | –
[2], 298.15 K, x2 = 0.3362 | 0.345 | –
[2], 298.15 K, x2 = 0.4005 | 0.377 | –
[2], 298.15 K, x2 = 0.4566 | 0.398 | –
[2], 298.15 K, x2 = 0.5101 | 0.408 | –
[2], 298.15 K, x2 = 0.5578 | 0.408 | –
[2], 298.15 K, x2 = 0.5984 | 0.402 | –
[2], 298.15 K, x2 = 0.6297 | 0.395 | –
[2], 298.15 K, x2 = 0.6727 | 0.381 | –
[2], 298.15 K, x2 = 0.7191 | 0.357 | –
[2], 298.15 K, x2 = 0.7636 | 0.329 | –
[2], 298.15 K, x2 = 0.8098 | 0.289 | –
[2], 298.15 K, x2 = 0.8591 | 0.24 | –
[2], 298.15 K, x2 = 0.9024 | 0.185 | –
[2], 298.15 K, x2 = 0.9385 | 0.124 | –
[2], 298.15 K, x2 = 0.9744 | 0.0595 | –
[2], 318.15 K, x2 = 0.0892 | 0.136 | –
[2], 318.15 K, x2 = 0.172 | 0.226 | –
[2], 318.15 K, x2 = 0.2474 | 0.3 | –
[2], 318.15 K, x2 = 0.3208 | 0.354 | –
[2], 318.15 K, x2 = 0.3848 | 0.388 | –
[2], 318.15 K, x2 = 0.4412 | 0.409 | –
[2], 318.15 K, x2 = 0.4941 | 0.42 | –
[2], 318.15 K, x2 = 0.5409 | 0.421 | –
[2], 318.15 K, x2 = 0.5801 | 0.417 | –
[2], 318.15 K, x2 = 0.5985 | 0.412 | –
[2], 318.15 K, x2 = 0.6567 | 0.391 | –
[2], 318.15 K, x2 = 0.6942 | 0.374 | –
[2], 318.15 K, x2 = 0.7429 | 0.344 | –
[2], 318.15 K, x2 = 0.7959 | 0.303 | –
[2], 318.15 K, x2 = 0.8499 | 0.249 | –
[2], 318.15 K, x2 = 0.9018 | 0.179 | –
[2], 318.15 K, x2 = 0.9554 | 0.0973 | –
